US9126973B2, “Multiheteroaryl compounds as inhibitors of H-PGDS and their use for treating prostaglandin D2 mediated diseases” (Cayman Chemical Company, Incorporated, priority 2008, dated 2015)

Tests used:
[1] = biological target: H-PGDS (Homo sapiens (Human), UniProt O60760); test: H-PGDS Fluorescence Polarization Binding Assay (FPBA); conditions: H-PGDS-MBP fusion enzyme, fluorescent probe, reduced glutathione 5 mM, 60-90 minutes at room temperature, 96-well format
Procedure: H-PGDS Fluorescence Polarization Binding Assay This assay essentially is available from Cayman Chemical Company as Catalog item #600007. The test data reported for the aforementioned Examples (H-PGDS FPBA IC50) were generated using a 96-well, instead of the 384-well, format. […] Assays were performed in 96-well microtiter plates in 100 μL of total sample volume. Excitation and emission wavelengths appropriate for the employed detection analyte were used. […] Twelve clean microfuge tubes were labeled A1 through A12. […] Dimethyl sulfoxide (50 μL) was added to each of tubes A1 through A11. The HQL-79 control solution was serially diluted by removing 50 μL from tube A12 and placing it in tube A11 with subsequent thorough mixing of the contents of tube A11. Next, 50 μL was removed from tube A11 and was placed into tube A10 with subsequent thorough mixing of the contents of tube A10. This process was repeated for tubes A9 through A2. […] A test compound may be dissolved in DMSO, ethanol, or methanol at several concentrations when the titration endpoint is unknown. […] Assay cocktail (95 μL) was added to each plate well. DMSO (5 μL) from microfuge tube A1 was added to each plate well A1 and B1. Positive control solution (5 μL) from microfuge tube A2 was added to each plate well A2 and B2. Positive control solution (5 μL) from microfuge tube A3 was added to each plate well A3 and B3. This procedure was continued until all the positive control standard dilutions were aliquoted. Test compound solutions (5 μL) were added to the wells. […] The IC50 for a particular test compound was obtained by performing a full concentration titration versus a full concentration titration of positive control. Comparison of a single concentration of a test compound to the maximum binding well provided an assessment of the relative affinity of the test compound for H-PGDS-MBP. The plate was covered and incubated for 60-90 minutes at room temperature. The FP signal is stable for at least two hours. […] The measurements were taken in the fluorescent polarization mode with the z-height set to the middle of the well and the G-factor set to 1.13 on a Tecan Safire 2 reader.

H-PGDS, sequence (O60760 whole entry, the tested form may be a part): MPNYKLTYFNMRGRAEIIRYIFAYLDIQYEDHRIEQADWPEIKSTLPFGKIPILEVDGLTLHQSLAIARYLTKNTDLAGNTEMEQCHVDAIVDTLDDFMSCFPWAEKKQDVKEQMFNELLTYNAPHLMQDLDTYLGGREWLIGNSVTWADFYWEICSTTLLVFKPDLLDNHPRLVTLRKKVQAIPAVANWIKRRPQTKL

In the case of c1ccc(-c2ncc(-c3ncc(-c4ccccc4)[nH]3)cn2)cc1 [Example 44, 2-phenyl-5-(5-phenyl-1H-imidazol-2-yl)pyrimidine], the IC50 [1] is reported as 2800 nM and the melting point is reported as 238 °C.

Compound c1ccc(-c2ncc(-c3cnc(C4CCNC4)[nH]3)cn2)cc1 (racemic) [Example 30, (±)-2-phenyl-5-(2-(pyrrolidin-3-yl)-1H-imidazol-5-yl)pyrimidine] has an IC50 [1] of 2000 nM.

In the case of c1ccc(Cn2cncc2-c2cnc(-c3ccccc3)nc2)cc1 [Example 33, 5-(1-benzyl-1H-imidazol-5-yl)-2-phenylpyrimidine], the IC50 [1] is reported as 2000 nM and the melting point is reported as 140 °C.

With c1ccc(-c2ncc(-c3cnc(C4CCCNC4)[nH]3)cn2)cc1 (racemic) [Example 22, (±)-2-phenyl-5-(2-(piperidin-3-yl)-1H-imidazol-5-yl)pyrimidine] the IC50 [1] was 1250 nM and the melting point was 140 °C.

Compound Cl.c1ccc(-c2ncc(-c3cc[nH]n3)cn2)cc1 [Example 41, 2-phenyl-5-(1H-pyrazol-3-yl)pyrimidine hydrochloride] has an IC50 [1] of 2400 nM and a melting point of 264 to 273 °C.

In the case of Cn1cncc1-c1cnc(-c2ccccc2)nc1 [Example 32, 5-(1-methyl-1H-imidazol-5-yl)-2-phenylpyrimidine], the IC50 [1] is reported as 7600 nM and the melting point is reported as 144 °C.

For CNC(=O)N1CCCC(c2ncc(-c3cnc(-c4ccccc4)nc3)[nH]2)C1 (racemic) [Example 25B, (±)-N-methyl-3-(5-(2-phenylpyrimidin-5-yl)-1H-imidazol-2-yl)piperidine-1-carboxamide], the IC50 [1] was 300 nM.

In the case of Cc1nc(-c2ccccc2)sc1-c1cnc(-c2cccnc2)n1Cc1ccccc1 [Example 71, 5-(1-benzyl-2-(pyridin-3-yl)-1H-imidazol-5-yl)-4-methyl-2-phenylthiazole], the IC50 [1] is reported as > 20000 nM.

In the case of c1ccc(-c2ncc(-c3csc(-c4ccccc4)n3)cn2)cc1 [Example 48, 2-phenyl-4-(2-phenylpyrimidin-5-yl)thiazole], the IC50 [1] is reported as > 20000 nM and the melting point is reported as 214.4 to 216.1 °C.

In the case of c1ccc(-c2ncc(-c3cc(-c4cccnc4)n[nH]3)cn2)cc1 [Example 53, 2-phenyl-5-(3-(pyridin-3-yl)-1H-pyrazol-5-yl)pyrimidine], the IC50 [1] is reported as 1300 nM.

Work on O=C(N1CCCC(c2nc(-c3cnc(-c4ccccc4)nc3)c[nH]2)C1)C(F)(F)F (racemic) [Example 27, (±)-2,2,2-trifluoro-1-(3-(4-(2-phenylpyrimidin-5-yl)-1H-imidazol-2-yl)piperidin-1-yl)methanone] yielded an IC50 [1] of 90 nM.

With CC(C)(C)OC(=O)N1CCC(c2ncc(-c3cnc(-c4ccccc4)nc3)[nH]2)CC1 [Example 17, tert-butyl 4-(5-(2-phenylpyrimidin-5-yl)-1H-imidazol-2-yl)piperidine-1-carboxylate] the IC50 [1] was 150 nM.

c1ccc(-c2cc(-c3cnc(-c4ccccc4)nc3)[nH]n2)cc1 [Example 45, 2-phenyl-5-(3-phenyl-1H-pyrazol-5-yl)pyrimidine] gave an IC50 [1] of 1500 nM.

Work on CC(C)(C)OC(=O)N1CCC(c2ncc(-c3cnc(-c4ccccc4)nc3)[nH]2)C1 (racemic) [Example 28, (±)-tert-butyl 3-(5-(2-phenylpyrimidin-5-yl)-1H-imidazol-2-yl)pyrrolidine-1-carboxylate] yielded a melting point of 219 °C.

Cn1nnnc1-c1cnc(-c2ccccc2)nc1 [Example 73B, 5-(1-methyl-1H-tetrazol-5-yl)-2-phenylpyrimidine] gave an IC50 [1] of 20000 nM.

Work on COCCCNC(=O)c1csc(-c2cnc(-c3ccccc3)nc2)n1 [Example 64, N-(3-methoxypropyl)-2-(2-phenylpyrimidin-5-yl)thiazole-4-carboxamide] yielded an IC50 [1] of 3400 nM and a melting point of 134 to 136 °C.

c1ccc(-c2ncc(-c3cnc(C4CCNCC4)[nH]3)cn2)cc1 [Example 18, 2-phenyl-5-(2-(piperidin-4-yl)-1H-imidazol-5-yl)pyrimidine] showed an IC50 [1] of 1000 nM.

CNC(=O)N1CCCC(c2nc(-c3cnc(-c4ccccc4)nc3)cn2C(=O)NC)C1 (racemic) [Example 25A, (±)-N-methyl-3-(1-(methylcarbamoyl)-4-(2-phenylpyrimidin-5-yl)-1H-imidazol-2-yl)piperidine-1-carboxamide] gave an IC50 [1] of 620 nM.

For c1ccc(Cc2nc(-c3cnc(-c4ccccc4)nc3)cs2)cc1 [Example 60, 2-benzyl-4-(2-phenylpyrimidin-5-yl)thiazole], the IC50 [1] was > 20000 nM and the melting point was 170 °C.

c1ccc(Cn2c(-c3ccccc3)cnc2-c2cnc(-c3ccccc3)nc2)cc1 [Example 44 (Step B), 5-(1-benzyl-5-phenyl-1H-imidazol-2-yl)-2-phenylpyrimidine] gave an IC50 [1] of 15000 nM.

Work on c1ccc(-c2ncc(-c3cnc(CCc4cccnc4)[nH]3)cn2)cc1 [Example 16, 2-phenyl-5-(2-(2-(pyridin-3-yl)ethyl)-1H-imidazol-5-yl)pyrimidine] yielded an IC50 [1] of 300 nM and a melting point of 113 °C.

In the case of O=C(O)c1csc(-c2cnc(-c3ccccc3)nc2)n1 [Example 63, 2-(2-Phenylpyrimidin-5-yl)thiazole-4-carboxylic acid], the IC50 [1] is reported as 1100 nM.

In the case of Cc1ccc(-c2cnc(-c3cccnc3)n2Cc2ccccc2)cn1 [Example 66 (Step A), 5-(1-benzyl-2-(pyridin-3-yl)-1H-imidazol-5-yl)-2-methylpyridine], the IC50 [1] is reported as > 10000 nM.

c1ccc(Cn2cnc(-c3cnc(-c4ccccc4)nc3)c2)cc1 [Example 34, 5-(1-benzyl-1H-imidazol-4-yl)-2-phenylpyrimidine] gave an IC50 [1] of 4000 nM and a melting point of 195 °C.

Compound O=C(NCCN1CCOCC1)c1csc(-c2cnc(-c3ccccc3)nc2)n1 [Example 65, N-(2-morpholinoethyl)-2-(2-phenylpyrimidin-5-yl)thiazole-4-carboxamide] has an IC50 [1] of 2500 nM.

With c1ccc(-c2ncc(-c3ncc(-c4ccccc4)o3)cn2)cc1 [Example 47, 5-phenyl-2-(2-phenylpyrimidin-5-yl)oxazole] the IC50 [1] was > 20000 nM.

O=C(O)c1cc(-c2cnc(Oc3ccccc3)nc2)[nH]n1 [Example 56, 5-(2-phenoxypyrimidin-5-yl)-1H-pyrazole-3-carboxylic acid] showed an IC50 [1] of 5000 nM.

Compound c1cncc(-c2ncc(-c3cnc(-c4cccnc4)[nH]3)cn2)c1 [Example 12, 2-(pyridin-3-yl)-5-(2-(pyridin-3-yl)-1H-imidazol-5-yl)pyrimidine] has an IC50 [1] of 1300 nM and a melting point of 299 °C.

For Cn1nnc(-c2cnc(-c3ccccc3)nc2)n1 [Example 73A, 5-(2-methyl-2H-tetrazol-5-yl)-2-phenylpyrimidine], the IC50 [1] was 10000 nM.

Work on c1ccc(-c2ncc(-c3cnc[nH]3)cn2)cc1 [Example 5, 5-(1H-imidazol-5-yl)-2-phenylpyrimidine] yielded an IC50 [1] of 5000 nM and a melting point of 216 °C.

In the case of c1ccc(-c2ncc(-c3nnn[nH]3)cn2)cc1 [Example 43, 2-phenyl-5-(1H-tetrazol-5-yl)pyrimidine], the IC50 [1] is reported as 2500 nM and the melting point is reported as 237 °C.

In the case of Cc1ccc(-c2cnc(-c3cccnc3)[nH]2)cn1 [Example 66, 2-methyl-5-(2-(pyridin-3-yl)-1H-imidazol-5-yl)pyridine], the IC50 [1] is reported as > 10000 nM.

In the case of CC(C)(C)OC(=O)N1CCCC(c2ncc(-c3cnc(-c4ccccc4)nc3)[nH]2)C1 (racemic) [Example 21, (±)-tert-butyl 3-(5-(2-phenylpyrimidin-5-yl)-1H-imidazol-2-yl)piperidine-1-carboxylate], the IC50 [1] is reported as 200 nM and the melting point is reported as 130 °C.

Compound CC(=O)N1CCCC(c2nc(-c3cnc(-c4ccccc4)nc3)c[nH]2)C1 (centres unmarked) [1-(3-(4-(2-phenylpyrimidin-5-yl)-1H-imidazol-2-yl)piperidin-1-yl)ethanone] has an IC50 [1] of 90 nM.

c1ccc(Cn2c(-c3cnc(-c4ccccc4)nc3)cnc2-c2ccccc2)cc1 [Example 1 (Step C), 5-(1-benzyl-2-phenyl-1H-imidazol-5-yl)-2-phenylpyrimidine] gave an IC50 [1] of 15000 nM.

Work on CC(C)(C)OC(=O)c1csc(-c2cnc(-c3ccccc3)nc2)n1 [Example 62, tert-butyl 2-(2-phenylpyrimidin-5-yl)thiazole-4-carboxylate] yielded an IC50 [1] of 5900 nM.

With OC(N1CCCC(c2ncc(-c3cnc(-c4ccccc4)nc3)[nH]2)C1)C(F)(F)F (centres unmarked) [Example 24, 2,2,2-trifluoro-1-(3-(4-(2-phenylpyrimidin-5-yl)-1H-imidazol-2-yl)piperidin-1-yl)ethanol] the IC50 [1] was 10000 nM.

For CC(C)(C)OC(=O)N1CCC(n2nnc(-c3cnc(-c4ccccc4)nc3)n2)CC1 [Example 52, tert-butyl 4-(5-(2-phenylpyrimidin-5-yl)-2H-tetrazol-2-yl)piperidine-1-carboxylate], the melting point was 178 to 180 °C.

In the case of c1ccc(-c2ncc(-c3cn(C(c4ccccc4)(c4ccccc4)c4ccccc4)cn3)cn2)cc1 [Example 34 (Step A), 2-phenyl-5-(1-trityl-1H-imidazol-4-yl)pyrimidine], the IC50 [1] is reported as > 20000 nM.
